In patent publication US9844550B2, “Phtalazinone derivatives and manufacturing process thereof” (ILDONG PHARM CO., LTD., priority 2013, dated 2017):

Tests used:
[1] = test system: MDA-MB-436 breast cancer cell line; assay: Cell viability assay (MDA-MB-436); type: cell-based; conditions: Homo sapiens, 144 h; MDA-MB-436 cells, treated 6 days
How it was run: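 MDA-MB-436 breast cancer cells in DMEM/F12 with 10% FBS, treated 24 h after seeding with graded compound concentrations for 6 days at 37 °C, 5% CO2, medium changed every 3 days. Viability read with a fluorescence reagent; IC50 derived.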

[2] = test system: Capan-1 pancreatic cancer cell line; assay: Cell viability assay (Capan-1); type: cell-based; conditions: Homo sapiens, 240 h; Capan-1 cells, treated 10 days
Description: 3. Cell Viability Assay (Capan-1)
Cell viability assay was performed by using Capan-1 cell line to measure cytotoxicity of compounds in the present invention. Capan-1 pancreatic cancer cell line was seeded into 96-well plates at 37° C. under 5% CO2 atmosphere using IMDM (Sigma) containing 10% FBS (Hyclone). After 24 hr incubation, cells were treated with the invented compounds at various concentrations for 10 days. After 7-day incubation, the medium was changed. 10 days later, A fluorescence reagent was used to determine the IC50 values.

Tankyrase-1 = target: T1, Tankyrase-1 (Homo sapiens, UniProt O95271); assay: Tankyrase-1 enzyme assay; type: biochemical; conditions: 1 hr at room temperature, chemiluminescent readout
T1 sequence (O95271 1-1327): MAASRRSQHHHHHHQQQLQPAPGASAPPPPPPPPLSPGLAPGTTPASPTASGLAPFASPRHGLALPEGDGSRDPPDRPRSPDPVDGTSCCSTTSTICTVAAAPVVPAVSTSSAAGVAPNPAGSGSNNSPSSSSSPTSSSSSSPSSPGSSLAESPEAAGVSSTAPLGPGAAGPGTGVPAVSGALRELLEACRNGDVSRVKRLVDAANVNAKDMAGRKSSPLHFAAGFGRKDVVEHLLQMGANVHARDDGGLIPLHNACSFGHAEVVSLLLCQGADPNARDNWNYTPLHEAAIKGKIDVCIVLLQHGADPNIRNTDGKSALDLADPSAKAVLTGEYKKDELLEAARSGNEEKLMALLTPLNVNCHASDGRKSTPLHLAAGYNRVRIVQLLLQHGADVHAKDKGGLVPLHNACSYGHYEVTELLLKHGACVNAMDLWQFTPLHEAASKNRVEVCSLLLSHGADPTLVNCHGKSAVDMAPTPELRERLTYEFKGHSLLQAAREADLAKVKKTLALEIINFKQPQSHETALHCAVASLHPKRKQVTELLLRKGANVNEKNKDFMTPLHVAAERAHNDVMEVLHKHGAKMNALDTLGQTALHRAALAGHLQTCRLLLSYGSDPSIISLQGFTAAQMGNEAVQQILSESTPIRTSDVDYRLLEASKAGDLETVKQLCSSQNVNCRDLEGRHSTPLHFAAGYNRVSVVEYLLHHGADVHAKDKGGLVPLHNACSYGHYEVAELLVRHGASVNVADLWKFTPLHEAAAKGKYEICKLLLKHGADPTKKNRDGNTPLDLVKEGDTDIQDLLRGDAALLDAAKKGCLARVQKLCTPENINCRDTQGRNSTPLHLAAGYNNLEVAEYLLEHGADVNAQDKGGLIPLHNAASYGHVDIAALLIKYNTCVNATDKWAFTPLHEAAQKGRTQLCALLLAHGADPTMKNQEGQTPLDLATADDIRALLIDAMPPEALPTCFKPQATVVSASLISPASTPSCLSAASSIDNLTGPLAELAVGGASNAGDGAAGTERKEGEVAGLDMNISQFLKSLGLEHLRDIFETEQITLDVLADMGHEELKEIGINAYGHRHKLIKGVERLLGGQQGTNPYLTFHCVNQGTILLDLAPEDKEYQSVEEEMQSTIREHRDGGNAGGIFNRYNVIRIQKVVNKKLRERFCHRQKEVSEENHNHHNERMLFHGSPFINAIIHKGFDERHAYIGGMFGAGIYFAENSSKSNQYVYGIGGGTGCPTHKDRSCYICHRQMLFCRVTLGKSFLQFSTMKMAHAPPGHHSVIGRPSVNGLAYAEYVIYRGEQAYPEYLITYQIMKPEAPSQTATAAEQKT
Description: 5. Tankyrase-1 Enzyme Assay
Tankyrase-1 enzyme assay was performed to determine Tankyrase-1 inhibitory activity of compounds in the present invention. The enzymatic reaction was conducted by coating the plate with substrates of tankyrase-1, and then the plate was washed. Compounds in the present invention serially diluted in DMSO were added to the reaction buffer activating tankyrase-1, and incubated for 1 hr at room temperature. After stopping the reaction, the plate was washed, and streptavidin-HRP was added to each well. IC50 was calculated by adding chemiluminescent substrate and immediately reading the sample in a microplate reader (Biotek).

[3] = test system: LNCaP prostate cancer cell line; assay: Cell viability assay (LNCaP); type: cell-based; conditions: Homo sapiens, 264 h; LNCaP cells, treated 11 days
Description: 4. Cell Viability Assay (LNCaP)
Cell viability assay was performed by using LNCaP cell line to measure cytotoxicity of compounds in the present invention. LNCaP prostate cancer cell line was seeded into 96-well plates at 37° C. under 5% CO2 atmosphere using RPMI-1640 (Hyclone) containing 10% FBS (Hyclone). After 24 hr incubation, cells were treated with the invented compounds at various concentrations for 11 days. The medium was changed every 3 to 4 day. 11 days later, A fluorescence reagent was used to determine the IC50 values.

Mouse pharmacokinetics = type: in vivo; parameters: concentration or dose not given beside the values; conditions: Balb/c male mice, blood samples 15 to 1140 min, LC-MS/MS
Description: To evaluate the pharmacokinetics test, the invented compounds (from I-25 to I-1171) were determined as follows. Blood samples are collected at 15, 30, 60, 120, 240, 480, 1140 min. Quantification is by using a LC-MS/MS method specific to the selected compound. Pharmacokinetics parameters are calculated using WinNonLinnon compartmental analysis software.

[4] = test system: Capan-1 Human pancreatic cancer cells; assay: In vivo antitumoral efficacy, Capan-1 subcutaneous xenograft; conditions: Capan-1 xenograft in Balb/c nude mice
Description: To evaluate the in vivo antitumoral efficacy, the invented compounds (I-80˜171) was determined as a result to follows.
Capan-1 Human pancreatic cancer cells were established as subcutaneous xenografts by injection of 8×10^6 cells into the flanks of adult female Balb/c nude mice. Mice with established tumors (160-250 mm^3) were selected for study (n=6/treatment group). The test compounds were formulated in DW and administered orally (po) at a dose of 30˜200 mg/kg. The vehicle alone was administered to control groups. Animals were dosed 5 days per week (Monday through Friday) for 3 consecutive weeks.
Animals were weighed and tumor size was determined twice weekly by caliper measurements, and tumor volumes were calculated (volume=[…] (mm^3), where l and w refer to the larger and smaller dimensions collected at each measurement). The mean tumor volumes of each group were calculated. The change in mean treated tumor volume was divided by the change in mean control tumor volume, multiplied by 100 and subtracted from 100% to give the tumor growth inhibition for each group.

[5] = 100 mg/kg po qd x 5, 3 consecutive weeks
[6] = 200 mg/kg po qd x 5, 3 consecutive weeks

| Structure (SMILES) | IC50 [1] | IC50 [2] | IC50 (Tankyrase-1) | IC50 [3] | AUC (Mouse pharmacokinetics) | % TGI [4, 5] | % TGI [4, 6] |
| --- | --- | --- | --- | --- | --- | --- | --- |
| N#CC1(NC2CN(C(=O)c3cc(Cc4n[nH]c(=O)c5ccccc45)ccc3F)C2)CCC1 [Compound I-99, 1-((1-(2-fluoro-5-((4-oxo-3,4-dihydrophthalazin-1-yl)methyl)benzoyl)azetidin-3-yl)amino)cyclobutanecarbonitrile] | 5 to 50 nM | 300 to 1000 nM | 300 to 1000 nM | 300 to 1000 nM | 586 ng·h/mL | – | – |
| CC(C)(C)NCC1CN(C(=O)c2cc(Cc3n[nH]c(=O)c4ccccc34)ccc2F)C1 [Compound I-147, 4-(3-(3-((tert-butylamino)methyl)azetidine-1-carbonyl)-4-fluorobenzyl)phthalazin-1(2H)-one] | 300 to 1000 nM | – | > 1000 nM | – | – | – | – |
| O=C(c1cc(Cc2n[nH]c(=O)c3ccccc23)ccc1F)N1CC(Nc2ccc(Cl)nn2)C1 [Compound I-114, 4-(3-(3-((6-chloropyridazin-3-yl)amino)azetidine-1-carbonyl)-4-fluorobenzyl)phthalazin-1(2H)-one] | 300 to 1000 nM | – | > 1000 nM | 5 to 50 nM | – | – | – |
| COC[C@@H](C)NC1CN(C(=O)c2cc(Cc3n[nH]c(=O)c4ccccc34)ccc2F)C1 [Compound I-83, (R)-4-(4-fluoro-3-(3-((1-methoxypropan-2-yl)amino)azetidine-1-carbonyl)benzyl)phthalazin-1(2H)-one] | 5 to 50 nM | 300 to 1000 nM | – | > 1000 nM | 567 ng·h/mL | – | – |
| CCCCNC1CN(C(=O)c2cc(Cc3n[nH]c(=O)c4ccccc34)ccc2F)C1 [Compound I-53, 4-(3-(3-(butylamino)azetidine-1-carbonyl)-4-fluorobenzyl)phthalazin-1(2H)-one] | ≤ 5 nM | 300 to 1000 nM | – | > 1000 nM | 1250 ng·h/mL | – | – |
| Cl.O=C(c1cc(Cc2n[nH]c(=O)c3ccccc23)ccc1F)N1CC(NC2CCCC2)C1 [Compound I-158, 4-(3-(3-(cyclopentylamino)azetidine-1-carbonyl)-4-fluorobenzyl)phthalazin-1(2H)-one hydrochloride] | – | – | – | – | – | 44.9% | 80.9% |
| CC(C)CNC1CN(C(=O)c2cc(Cc3n[nH]c(=O)c4ccccc34)ccc2F)C1 [Compound I-35, 4-(4-fluoro-3-(3-(isobutylamino)azetidine-1-carbonyl)benzyl)phthalazin-1(2H)-one] | ≤ 5 nM | 300 to 1000 nM | – | > 1000 nM | 2250 ng·h/mL | – | – |
| O=C(c1cc(Cc2n[nH]c(=O)c3ccccc23)ccc1F)N1CC(NC2CCCC2)C1 [Compound I-27, 4-(3-(3-(cyclopentylamino)azetidine-1-carbonyl)-4-fluorobenzyl)phthalazin-1(2H)-one] | ≤ 5 nM | 50 to 300 nM | > 1000 nM | 50 to 300 nM | 472 ng·h/mL | – | – |
| C#CCNCC1CN(C(=O)c2cc(Cc3n[nH]c(=O)c4ccccc34)ccc2F)C1 [Compound I-149, 4-(4-fluoro-3-(3-((prop-2-yn-1-ylamino)methyl)azetidine-1-carbonyl)benzyl)phthalazin-1(2H)-one] | ≤ 5 nM | 300 to 1000 nM | – | > 1000 nM | 169 ng·h/mL | – | – |
| O=C(c1cc(Cc2n[nH]c(=O)c3ccccc23)ccc1F)N1CC(NC2(C(F)(F)F)CC2)C1 [Compound I-80, 4-(4-fluoro-3-(3-((1-(trifluoromethyl)cyclopropyl)amino)azetidine-1-carbonyl)benzyl)phthalazin-1(2H)-one] | ≤ 5 nM | 50 to 300 nM | – | 50 to 300 nM | 2020 ng·h/mL | 75.9% | 103.9% |
| O=C(c1cc(Cc2n[nH]c(=O)c3ccccc23)ccc1F)N1CC(CNc2ccccc2)C1 [Compound I-150, 4-(4-fluoro-3-(3-((phenylamino)methyl)azetidine-1-carbonyl)benzyl)phthalazin-1(2H)-one] | 50 to 300 nM | – | > 1000 nM | – | – | – | – |
| CC(C)CNCC1CN(C(=O)c2cc(Cc3n[nH]c(=O)c4ccccc34)ccc2F)C1 [Compound I-146, 4-(4-fluoro-3-(3-((isobutylamino)methyl)azetidine-1-carbonyl)benzyl)phthalazin-1(2H)-one] | 5 to 50 nM | 300 to 1000 nM | – | > 1000 nM | 1090 ng·h/mL | – | – |
| Cl.O=C(c1cc(Cc2n[nH]c(=O)c3ccccc23)ccc1F)N1CC(NCC2CC2)C1 [Compound I-160, 4-(3-(3-((cyclopropylmethyl)amino)azetidine-1-carbonyl)-4-fluorobenzyl)phthalazin-1(2H)-one hydrochloride] | – | – | – | – | 2250 ng·h/mL | 55.8% | 88.2% |
| O=C(c1cc(Cc2n[nH]c(=O)c3ccccc23)ccc1F)N1CC[C@@H](Nc2ccc(C(F)(F)F)cn2)C1 [Compound I-131, (R)-4-(4-fluoro-3-(3-((5-(trifluoromethyl)pyridin-2-yl)amino)pyrrolidine-1-carbonyl)benzyl)phthalazin-1(2H)-one] | 50 to 300 nM | – | – | 5 to 50 nM | – | – | – |
| O=C(c1cc(Cc2n[nH]c(=O)c3ccccc23)ccc1F)N1CC[C@@H](Nc2ncc(Br)cn2)C1 [Compound I-130, (R)-4-(3-(3-((5-bromopyrimidin-2-yl)amino)pyrrolidine-1-carbonyl)-4-fluorobenzyl)phthalazin-1(2H)-one] | ≤ 5 nM | – | 50 to 300 nM | – | – | – | – |
| CC(C)NC1CN(C(=O)c2cc(Cc3n[nH]c(=O)c4ccccc34)ccc2F)C1 [Compound I-32, 4-(4-fluoro-3-(3-(isopropylamino)azetidine-1-carbonyl)benzyl)phthalazin-1(2H)-one] | ≤ 5 nM | 50 to 300 nM | > 1000 nM | 50 to 300 nM | – | – | – |
